Measurements: patent US9034794B2, “Method for post-emergence crabgrass control” (FMC Corporation, priority 2007, dated 2015)

Test system: Crabgrass (Digitaria sp.)
Assay: Post-emergence control of crabgrass in greenhouse pots, application at the 1-2 leaf growth stage
Format: in vivo
Experimental: The compositions of the present invention were tested for herbicidal efficacy in the following manner:
For post-emergence testing, three disposable 3 inch square pots for each rate of application of each herbicide solution were filled with a soil, comprised of peat moss, vermiculite, bark ash, pine bark, limestone and a wetting agent (Metro Mix® 360 artificial soil, Scotts Company, Marysville, Ohio), to which about 20 to 30 crabgrass seeds (Digitaria sp.) seeds were planted. The pots were placed in a greenhouse and watered daily, thus allowing the seeds to germinate and the foliage to develop for 11 days, until the crabgrass was at the 1-2 leaf growth stage.
Pots designated for treatment were placed on a conveyor belt and the conveyor belt fed under a spray nozzle mounted about ten inches above the postemergent foliage. The spray of herbicidal solution was commenced and once stabilized; the pots were passed under the spray at a speed to receive a coverage equivalent of 30 gallons per acre. The application rates are those shown in Table 1 below for the individual herbicidal solutions and the herbicide compositions of the present invention. The post-emergence pots were immediately placed in the green-house and not watered for 24 hours after treatment. Thereafter they were regularly watered at ground level. The control of crabgrass was evaluated in each experimental test from 1 to 22 days after treatment (DAT). The results, shown as an average of the replications, were compared with results observed in untreated control pots in the same tests. All test treatments contained 0.25% (by volume) of a non-ionic surfactant.
Percent control was determined by comparing the treated plants to the untreated control using the following rating system:
The results, shown as an average of the replications, were compared with results observed in untreated control plots in the same trials.

Structure (SMILES): Cc1nn(-c2cc(NS(C)(=O)=O)c(Cl)cc2Cl)c(=O)n1C(F)F [A, N-[2,4-dichloro-5-[4-(difluoromethyl)-4,5-dihydro-3-methyl-5-oxo-1H-1,2,4-triazol-1-yl]phenyl]methanesulfonamide]
- Average % control (0.25 lb AI/Acre, 1 DAT): 20%
- Average % control (0.25 lb AI/Acre, 3 DAT): 20%
- Average % control (0.25 lb AI/Acre, 7 DAT): 5%
- Average % control (0.25 lb AI/Acre, 14 DAT): 0%
- Average % control (0.25 lb AI/Acre, 22 DAT): 0%
- Average % control (0.375 lb AI/Acre, 1 DAT): 10%
- Average % control (0.375 lb AI/Acre, 3 DAT): 25%
- Average % control (0.375 lb AI/Acre, 7 DAT): 10%
- Average % control (0.375 lb AI/Acre, 14 DAT): 0%
- Average % control (0.375 lb AI/Acre, 22 DAT): 0%

Structure (SMILES): CCCN(CCC)c1c([N+](=O)[O-])cc(C(F)(F)F)c(N)c1[N+](=O)[O-] [B, 2,4-dinitro-N^3,N^3-dipropyl-6-(trifluoromethyl)-1,3-benzenediamine]
- Average % control (0.75 lb AI/Acre, 1 DAT): 0%
- Average % control (0.75 lb AI/Acre, 3 DAT): 0%
- Average % control (0.75 lb AI/Acre, 7 DAT): 0%
- Average % control (0.75 lb AI/Acre, 14 DAT): 0%
- Average % control (0.75 lb AI/Acre, 22 DAT): 0%
